“Also recorded” adds a separate entry of the source. *1 amine or outer side, *2 acyl side, *3 side chain or, on linkers, in order; H or OH if unused. Where a SMILES comes first, the peptide text is derived from it. Bridges are numbered along the chain shown (N, C = ends). Roman numbers before positions name the chains, in order. [ ]: non-standard residue; d: D form. Actinocin(9to1) = Cc1c2oc3c(C)ccc(C(=O)[*:1])c3nc-2c(C(=O)[*:2])c(N)c1=O; NMeV = CN[C@H](C(=O)O)C(C)C; Sar = CNCC(=O)O
What was measured:
caspase-3 [1] = test: Caspase-3 assay in IMR-32 cells; type: cell-based
Procedure: (§1) Three CNS derived cell lines, IMR-32, NB41A3 and Neuro2A, were initially evaluated for growth and transfection characteristics, inducibility of apoptosis in a large percentage of cells, and a inducible apoptosis protease activity. […] The SYTO 13 cell survival assay and Cell Death Detection ELISA^PLUS (Materials and Methods) were used to optimize conditions for induction of apoptosis. IMR-32 cells were treated with Actinomycin D (ActD), cycloheximide (CHX), etoposide or staurosporin for 4-8 hrs.
(§2) Caspase-3 Assay: Caspase-3 activity was assayed according to the following protocol. Cells plated and treated as above were washed in 1×PBS and lysed in 1×assay buffer (1 mM DTT, 1% Triton X-100, 0.5% Tween-20 in 1×PBS, pH 7.2). Lysates were combined with fluorogenic substrate, Ac-DEVD-AMC ([…]), ±inhibitor, Ac-DEVD-CHO (10 μM) (Bachem) in 1×assay buffer and incubated in the dark for 1 hr. at room temperature. Fluorescence readings were taken on the Cytofluor II plate reader (excitation 360 nm, emission 460 nm, 6 reads/well, gain 50).
Confluent IMR-32 cells were treated with 100 μM etoposide for 8 hrs. Cell lysates were collected and assayed for caspase-3 activity.

IMR-32 cells [2] = test: Cell death / SYTO 13 cell survival in IMR-32 cells; type: cell-based; conditions: for programmed cell death as measured by Cell Death Detection: 4-8 hrs. treatment; for cells surviving (SYTO 13 assay): 50 μM etoposide
Procedure: as §1
SYTO13 Cell Viability Assays: Cells were seeded into 96-well plates, incubated overnight to adhere cells to the plastic, and then treated in quadruplicate for various times with extrinsically applied apoptosis-inducing agents, i.e., staurosporin or etoposide. Cell viability was determined using 5 μM SYTO 13 (Molecular Probes) and/or 5 μg/ml propidium iodide (PI, Molecular Probes). As controls, four wells of untreated cells were stained with SYTO 13 and PI, i.e., to measure the maximum signal (max), and four wells of untreated cells were stained with only PI, i.e., to measure the minimum signal (min). After 30 minutes of incubation at 37° C., fluorescence was assayed in plates using the Cytofluor II plate reader (Perseptive Biosystems) (excitation 485/20 nm; emission 530/30 nm; gain 50). Data was collected as relative fluorescence units (rfu) and averaged for six readings per well. Percent cell survival was calculated as 100×(rfutreatment−rfumin)/(rfumax−rfumin).
(§3) Etoposide-Induced Cell Death and Apoptotic DNA Fragmentation in IMR-32 Cells: Confluent IMR-32 cells were treated with 50 μM etoposide phosphate for 2, 8, 17 or 24 hrs. To evaluate apoptosis cells were either: i) stained with SYTO 13 and assayed for fluorescence using a Cytofluor II plate reader (excitation 485/20 nm, emission 530/30 nm), or ii) nucleosome-associated DNA fragments were detected using the Cell Death Detection ELISA^PLUS (Boehringer Mannheim) according to the manufacturer's instructions.

F9-1-13 cells = test: Cell-based FRET reporter assay in F9-1-13 (SgAT) cells; set-up: species or system human
Excerpt: Transfection of pcDNA3VH-SgAT and pcDNA3VH-SnAT into U-138 cells (using methods described above) resulted initially in few colonies and FRET signal was lost in many clones during expansion, however, from among the various subclones the F9-1-13 (pcDNA3VH-SgAT transfected; ATCC No. PTA-84) and F10-24-2 (pcDNA3-SnAT transfected) subclones were eventually expanded and shown to express stable FRET signals. As desired, the FRET signal expressed in F9-1-13 decreased in response to both staurosporin and anti-Fas antibody treatment of cells, while the FRET signal expressed by the F10-24-2 control cells, (i.e., lacking a caspase substrate domain), was unaffected following staurosporin or anti-Fas antibody treatment. […] F9-1-13 therefore appeared suitable for microtiter assays, and perhaps use in HTS assays for screening to identify and select modulators of apoptosis.
Studies were initiated to adapt the experimental cell-based FRET assay of EXAMPLE 5 to a format suitable for use in high-throughput screening. First, the assay was scaled down from a 24-well to a 96-well plate format. Cells from three different F9 parental cultures were plated in a black-sided 96-well plates (Costar #3904) at a density of 32,000 cells/well (˜1×10^5 cells/cm^2); allowed to adhere overnight; and then the media was replaced with either 100 μl fresh media containing inducer (5 μM staurosporin in 0.25% DMSO vehicle) or 100 μl containing only vehicle (0.25% DMSO). After an overnight incubation, fluorescence measurements were made to evaluate FRET signal changes. […] The assay therefore appeared to be adaptable to a 96-well format but it was not initially clear how signal might be improved to increase the signal-to-background ratio.
A 96-well FRET assay was evaluated for inter-assay well variability and inter-plate variability. Possible signal drift during measurement of the FRET fluorescence signal was evaluated using one of two different robotics-compatible rapid fluorescence plate readers (SpeedReader or Cytofluor II). After plating at an initial density of about 60,000 cells/well, and overnight culture F9-1-13 cells were treated with 5 μM staurosporin, or vehicle. After an overnight incubation in staurosporin (i.e., 16-24 hrs.), the plates were either washed, or not washed, and then assayed repeatedly over the next 1.5 hours using either of the plate readers. […] However, using the same assay conditions but with anti-Fas antibody as an inducer, different results were recorded. […] The basis for the observed differences in measuring devices is not clear, but may relate to the design of the light source and/or the sensitivity of the detection circuitry in the two different respective fluorescence readers as well as possible different means for optically or digitally subtracting background incident radiation.
Assay Confirmation: The following experiment was performed to validate the ability of the 96-well FRET assay to detect inhibitors of apoptosis: namely, F9-1-13 cells (n=5 wells) were treated with 50-100 μM Z-VAD-fmk (a broad spectrum caspase inhibitor) or vehicle (n=55) in randomized wells of a 96-well plate. All of these wells, and six additional positive control wells (i.e., lacking the inhibitor), were treated with 5 μM staurosporine in 0.25% DMSO vehicle. Six negative control wells were treated with vehicle only (0.25% DMSO). After overnight incubation, FRET signal changes were evaluated as described above.
Three alternatives to staurosporine induction were evaluated: serum withdrawal; c2-ceramide treatment; and induction via engagement of the CD95/Fas receptor with anti-Fas antibody. […] To increase the proportion of adherent cells, poly-D-lysine and 0.1% gelatin were evaluated in anti-Fas antibody treated F9-1-13 cells. […] Anti-Fas antibody was therefore chosen as a preferred inducer of apoptosis for high-throughput screening. […]

F1-1-42 cells = test: Staurosporin-induced apoptosis in F1-1-42 SAT FRET reporter cells (FRET signal, western blot, caspase-3, morphology); type: cell-based, human; conditions: 100 μM added 30 min prior to staurosporin
Procedure: Detecting Intracellular Changes in a FRET Reporter in Cells Undergoing Apoptosis: Having established that SAT reporter protein synthesized in HEK293 cells could be cleaved ex vivo, i.e., in cell lysates by trypsin (above), an initial in vivo intracellular assay was conducted using the selected F1-1-42 clonal cell line and staurosporin to induce apoptosis. […] In these experiments the F1-1-42 cells were plated at a density of 4×10^5 cells/0.5 ml in each well of a 24-well microtiter plate. After overnight incubation, apoptosis was induced by adding staurosporin to a final concentration of 5 μM, and using vehicle (0.25% DMSO) as a negative control. Assays for caspase-3 were used to confirm that apoptosis was induced. […] Subsequent testing determined that significant changes in FRET signal were first detectable at about 8 hours after addition of staurosporin and were maximal by 24 hrs post-induction.

caspase-3 [3] = test: Caspase-3 activity in F9-1-13 cells; type: cell-based, human; conditions: 75 μM, 16-24 hours
Procedure: Three alternatives to staurosporine induction were evaluated: serum withdrawal; c2-ceramide treatment; and induction via engagement of the CD95/Fas receptor with anti-Fas antibody. […] To increase the proportion of adherent cells, poly-D-lysine and 0.1% gelatin were evaluated in anti-Fas antibody treated F9-1-13 cells. […] Anti-Fas antibody was therefore chosen as a preferred inducer of apoptosis for high-throughput screening.
as §2

IMR-32 cells [4] = test: Microscopic examination of SYTO 13 / propidium iodide stained IMR-32 cells; type: cell-based; conditions: etoposide
Excerpt: as §1, with “IMR-32 cells were treated with Actinomycin D (ActD), cycloheximide (CHX), etoposide or staurosporin for 4-8 hrs.” left out
Morphologic Markers of Apoptosis: Microscopic markers of apoptosis include membrane blebbing, cell shrinkage (i.e., cytoplasmic condensation) and condensed (dense) chromosomal nuclear materials (i.e., pyknosis).

caspase-3 [5] = test: Caspase-3 assay in SAT-reporter-transformed HEK293 cells after apoptosis inducers; type: cell-based, human; conditions: 100-200 μM etoposide, 4, 5, 8 or 24 hrs.
IMR-32 cells [6] = type: cell-based
Procedure: as §1
DNA Fragmentation ELISA: Apoptosis-induced inter-nucleosomal fragmentation of chromosomal DNA was quantified using the “Cell Death Detection ELISA^PLUS” (Boehringer Mannheim) according to the manufacturer's instructions. Briefly, ˜10^4 cells/well were plated on a poly-D-lysine-coated 96-well plate and treated for various periods of times with different apoptosis-inducing agents. The cells were lysed and the nuclei and membranes were pelleted. An aliquot of the cytoplasm-containing supernatant was then transferred to a streptavidin-coated microtiter plate and incubated with anti-histone-biotin and anti-DNA-peroxidase, resulting in the formation of “sandwich” antibody complexes, i.e., (anti-DNA-peroxidase)-(nucleosomal-DNA-containing-histone) -(anti-histone-biotin)-(streptavidin-microtiter plate). Unbound antibody was removed by washing. Peroxidase substrate (i.e., ABTS) was added and nucleosomal DNA complexes quantified by spectrophotometric analysis of the colored peroxidase reaction product.
as §3

[7] = 50 μM etoposide phosphate, 2, 8, 17 or 24 hrs.

Compound: COc1cccc2c1C(=O)c1c(O)c3c(c(O)c1C2=O)C[C@@](O)(C(=O)CO)C[C@@H]3O[C@H]1C[C@H](N)[C@H](O)[C@H](C)O1 [Doxorubicin]
- increase in caspase-3 activity (caspase-3 [1]; 5 μM): did not produce any increase in caspase-3 activity

Compound: C[C@@H]1C[C@@H]([C@H](O)CC2CC(=O)NC(=O)C2)C(=O)[C@@H](C)C1 [CHX, cycloheximide]
- programmed cell death as measured by Cell Death Detection (IMR-32 cells [2]): about 50%

Compound: Z-VAD-fmk
- mean FRET signal greater than in the staurosporine treatment group (F9-1-13 cells; 50-100 μM Z-VAD-fmk, 5 μM staurosporine, overnight, 96-well, P<0.001): ~65%

Compound: Z-DEVD-fmk
- effect on cleavage of SAT reporter in cell extracts (western blot) (F1-1-42 cells): markedly less cleavage of SAT reporter
- effect on morphologic signs of apoptosis (F1-1-42 cells): reduced morphologic signs of apoptosis
- effect on staurosporin-induced FRET signal change (F1-1-42 cells): marked reduction in the FRET signal change

Compound: CCCCCCCCCCCCC/C=C/[C@@H](O)[C@H](CO)NC(C)=O [c2-ceramide]
- FRET signal change (F9-1-13 cells; 75 μM, 16-24 hours): Only a small reduction in the FRET signal
- caspase-3 activity change (caspase-3 [3]): Only a small reduction in the FRET signal and increase in caspase-3 activity

Compound: Cc1c2oc3c(C)ccc(C(=O)N[C@@H]4C(=O)N[C@H](C(C)C)C(=O)N5CCC[C@H]5C(=O)N(C)CC(=O)N(C)[C@@H](C(C)C)C(=O)O[C@@H]4C)c3nc-2c(C(=O)N[C@@H]2C(=O)N[C@H](C(C)C)C(=O)N3CCC[C@H]3C(=O)N(C)CC(=O)N(C)[C@@H](C(C)C)C(=O)O[C@@H]2C)c(N)c1=O [ActD, Actinomycin D] (I: T[dV]P[Sar][NMeV] / II: T[dV]P[Sar][NMeV]; ester I:1-I:C, II:1-II:C; linker I:N-II:N via Actinocin(9to1))
- programmed cell death as measured by Cell Death Detection (IMR-32 cells [2]): about 30%

Compound: COc1cc([C@@H]2c3cc4c(cc3[C@@H](O[C@@H]3O[C@@H]5CO[C@@H](C)O[C@H]5[C@H](O)[C@H]3O)[C@H]3COC(=O)[C@H]23)OCO4)cc(OC)c1O [etoposide]
- attached cells obviously dead (IMR-32 cells [4]; 8 hrs.): none were obviously dead
- attached cells with condensed nuclei and membrane blebbing (IMR-32 cells [4]; 8 hrs.): about 50%
- attached cells clearly dead (IMR-32 cells [4]; 24 hrs.): about 15%
- attached cells showing apoptotic morphology (IMR-32 cells [4]; 24 hrs.): about 75%
- increase in caspase-3 activity (caspase-3 [1]; confluent IMR-32, 100 μM etoposide, 8 hr.): ~5 fold
- induction of caspase-3-like activity (caspase-3 [1]; etoposide 50-100 μM): ~10 fold
- change in caspase-3 activity (caspase-3 [5]): no change was observed; also recorded: showed no effect
- cell survival by SYTO 13 staining in comparison with untreated controls (IMR-32 cells [2]; [7]): a decrease in cell survival over 24 hrs.
- cells surviving (SYTO 13 assay) (IMR-32 cells [2]; 8 hr): 55%
- cells surviving (SYTO 13 assay) (IMR-32 cells [2]; 24 hrs): 30%
- programmed cell death as measured by Cell Death Detection (IMR-32 cells [2]): about 50%
- time at which DNA fragmentation reached a maximal value (IMR-32 cells [6]; 50 μM etoposide): 8 h
- measured apoptotic DNA fragmentation (IMR-32 cells [6]; [7]): an increase in measured apoptotic DNA fragmentation
- DNA fragmentation as determined by ELISA, dose dependence (IMR-32 cells [6]; 4-8 hrs. treatment): dose-dependent changes
